Results on 1 compound are retold here after patent publication EP1034273B1, “HISTAMINE AND SEROTONIN BINDING MOLECULES” (Evolutec Limited, priority 1997, dated 1999).

As a reminder, the Kd is a measure of binding affinity in units of concentration. The IC50 is the point on the concentration scale where inhibition reaches its midpoint.

Like-named read-outs stand apart in the source and are kept apart here.

Assay [1] concerns the target Av-HBP (SEQ. ID. 6), semi-purified recombinant protein, Amblyomma variegatum. Conditions: read-out: equilibrium dissociation constant (Kd) for histamine; results not shown.
The target of assay [2] is recombinant D.RET6 (SEQ ID 4), Dermacentor reticulatus histamine-binding protein (Dermacentor reticulatus, UniProt Q8WSK7). The experiment in a line: biochemical. Here is the method: (§1) The recombinant D.RET6 was diluted with 1.5% γ-globulin (Sigma) and used in one set of experiments. Fifty microlitres of the protein solution were incubated with 50 µl of 1:2500 dilution of [2,5-^3H] histamine diHCl (1µCi/µl) solution (Amersham) at room temperature for at least 3 hours with or without increasing concentrations of unlabelled histamine. All the assays were carried out in a total volume of 200 µl. The incubations were terminated by adding 125 µl of PEG 8000 (36% w/v in PBS) and centrifuged in a microfuge at maximum speed for 12 minutes to collect the bound protein. The tubes were spun once more to remove all supernatant without disturbing the pellets. Subsequently, pellets were redissolved in PBS. Three millilitres of liquid scintillation cocktail (Beckman) were added and the radioactivity measured using a liquid scintillation counter (Wallac, 1217 Rackbeta).
To study the effect of serotonin on histamine binding activity, 10 µl of PBS (as a control experiment) or 10 µl serotonin (50 µM or 500 µM) were added to each 200 µl binding assay.
For data analysis, the ligand affinity constant was estimated from Scatchard plots as previously described by Hulme, 1992, Receptor-Ligand Interactions, IRL Press, Oxford). The nonlinear regression was used to fit the data (Motulsky, 1987, FASEB J, 1: 365-374) and two asymtotic straight lines were made as described elsewhere (Feldman, 1972, Analytical Biochem 48: 317).

For assay [3], the target named is T1, recombinant D.RET6 (Dermacentor reticulatus, UniProt Q8WSK7).
T1 sequence (Q8WSK7 18-209): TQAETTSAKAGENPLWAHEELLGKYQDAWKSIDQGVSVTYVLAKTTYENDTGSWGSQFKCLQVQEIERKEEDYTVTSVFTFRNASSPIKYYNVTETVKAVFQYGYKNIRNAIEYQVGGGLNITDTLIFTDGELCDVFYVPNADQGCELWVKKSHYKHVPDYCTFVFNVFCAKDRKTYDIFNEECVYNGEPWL
The experiment in a line: Competitive binding assay: unlabelled ligands displacing radioactive histamine from recombinant D.RET6. Conditions: graphically derived from competitive binding curve (Figure 15), read-out: IC50 of the unlabelled ligands in displacing the radioactive histamine from the binding site by 50%. How it is done:
as §1
In a second set of experiments, a competitive binding assay was used to compare three unlabelled competitor ligands (histamine, 1-methylhistamine and 3-methylhistamine).

Turning to `NCCc1c[nH]cn1` [histamine], the Kd is roughly 7.3 nM in assay [1]; 1.1 nM in assay [2] (Kd, first (higher affinity) histamine binding site, final concentration of 2.38µM serotonin); roughly 60 nM in assay [2] (Kd, first (higher affinity) histamine binding site, no serotonin, approximate, from asymptotic lines of Scatchard plot); 1.3 nM in assay [2] (Kd, first (higher affinity) histamine binding site, with 23.8µM serotonin); 1000 nM in assay [2] (read-out: Kd, second (lower affinity) histamine binding site, final concentration of 2.38µM serotonin); roughly 2000 nM in assay [2] (read-out: Kd, second (lower affinity) histamine binding site, no serotonin, approximate, from asymptotic lines of Scatchard plot). The Kd in assay [2] (read-out: Kd, second (lower affinity) histamine binding site, with 23.8µM serotonin) amounted to 1000 nM. For the same compound, the “increase of binding affinity of D.RET6 for histamine” value in assay [2] (in the presence of serotonin versus no serotonin) is recorded as “sixty-fold”. Also, the IC50 in assay [3] was determined as 133 nM.
